Reference: patent US20120264803A1, “METHOD FOR PREDICTING THERAPEUTIC EFFECTS OF CHEMOTHERAPY ON HEPATOCELLULAR CARCINOMA PATIENTS” (priority 2009, published 2012)

What was measured:
[1] = test system: hepatocellular carcinoma patients treated with TACE; assay: Comparative clinical study of TSU-68 administration vs non-administration after TACE (progression-free survival); type: in vivo, human
Procedure: A comparative clinical study was conducted for the TSU-68 administration group and the TSU-68 non-administration group consisting of cases diagnosed as hepatocellular carcinoma that were impossible to treat with hepatectomy and PAT and had been treated with TACE. The antitumor agent used herein for TACE was epirubicin.
The subject cases were randomly assigned to the TSU-68 administration group and the TSU-68 non-administration group. TSU-68 administration was initiated for cases assigned to the TSU-68 administration group within 2 weeks after TACE. TSU-68 was administered orally at a dose of 200 mg per administration twice daily after breakfast and dinner on consecutive days. No further cancer treatment was given to the TSU-68 non-administration group after TACE and thus only follow-up observation was carried out.
Progression-free survival was defined as survival within the period from the day of TACE designated as the initial date of reckoning to any of dates on which the following events was observed, whichever came first.
1. Date on which the presence of progressive disease (hereinafter referred to as “PD”) was confirmed as a result of assessment of best overall response (date of testing). 2. Date on which a test subject died for any reason (date of death). 3. Date on which a test subject was assessed to have experienced clinically obvious deterioration of the disease or to be in need of post-TACE treatment even without confirmation of PD upon assessment of best overall response (date of assessment).
Best overall response was evaluated by measuring tumor diameters by CT and assaying tumor markers (AFP, PIVKA-II, and AFP-L3 fractions) according to New Guideline to Evaluate the Response to Treatment in Solid Tumor (hereinafter referred to as “RECIST”) (J Natl Cancer Inst 92: 205, 2000).
The expression levels of PDGF-BB and IL-8 in blood obtained before TSU-68 administration after TACE were determined using ELISA Kits as described below.
Cut-off points were determined by the statistical analysis technique described below based on the quantified PDGF-BB and IL-8 levels.
(1) The cut-off point for dividing patients into the PDGF-BB hyperexpression group and the PDGF-BB underexpression group was calculated so that the difference between the 6-month-progression-free survival rate for the TSU-68 administration group and the 6-month-progression-free survival rate for the TSU-68 non-administration group was 20% or more for patients in the PDGF-BB hyperexpression group. The cut-off point was 1480 to 2030 pg/ml. (2) The cut-off point for dividing patients into the PDGF-BB hyperexpression group and the PDGF-BB underexpression group was calculated so that the hazard ratio of the TSU-68 administration group to the TSU-68 non-administration group was 0.6 or less for patients in the PDGF-BB hyperexpression group. The cut-off point was 1740 to 1960 pg/ml. (3) The cut-off point for dividing patients into the IL-8 hyperexpression group and the IL-8 underexpression group was calculated so that the difference between the 6-month-progression-free survival rate for the TSU-68 administration group and the 6-month-progression-free survival rate for the TSU-68 non-administration group was 20% or more for cases in the IL-8 hyperexpression group. The cut-off point was 2.1 to 6.6 pg/ml. (4) The cut-off point for dividing patients into the IL-8 hyperexpression group and the IL-8 underexpression group was calculated so that the hazard ratio of the TSU-68 administration group to the TSU-68 non-administration group was 0.6 or less for cases in the IL-8 hyperexpression group. The cut-off point was 2.1 to 10.5 pg/ml.
The PDGF-BB hyperexpression group, the PDGF-BB underexpression group, the IL-8 hyperexpression group, and the IL-8 underexpression group were subjected to survival time analysis of the TSU-68 administration group and the TSU-68 non-administration group with the use of the cut-off points calculated in Example 1.

[2] = test system: human cancer cell lines subcutaneously implanted (lung cancer, colon cancer, ovarian cancer); settings: oral administration of TSU-68 alone, Non-Patent Literature 3; cited from earlier work
[3] = IL-8 hyperexpression group, cut-off 2.1 pg/ml, vs non-administration
[4] = IL-8 hyperexpression group, cut-off 6.6 pg/ml, vs non-administration
[5] = IL-8 hyperexpression group, cut-off 10.5 pg/ml, vs non-administration
[6] = IL-8 underexpression group, cut-off 6.6 pg/ml, vs non-administration
[7] = IL-8 underexpression group, cut-off 10.5 pg/ml, vs non-administration
[8] = PDGF-BB hyperexpression group, cut-off 1480 pg/ml, vs non-administration
[9] = PDGF-BB hyperexpression group, cut-off 1740 pg/ml, vs non-administration
[10] = PDGF-BB hyperexpression group, cut-off 1960 pg/ml, vs non-administration
[11] = PDGF-BB hyperexpression group, cut-off 2030 pg/ml, vs non-administration
[12] = PDGF-BB underexpression group, cut-off 1480 pg/ml, vs non-administration
[13] = PDGF-BB underexpression group, cut-off 1740 pg/ml, vs non-administration
[14] = PDGF-BB underexpression group, cut-off 1960 pg/ml, vs non-administration
[15] = PDGF-BB underexpression group, cut-off 2030 pg/ml, vs non-administration
[16] = patients having high PDGF-BB or IL-8 blood levels (summary over cut-off points), vs non-administration
[17] = stratified using reported VCAM cut-off point 2370 pg/ml (data not shown), vs non-administration

Cc1[nH]c(/C=C2\C(=O)Nc3ccccc32)c(C)c1CCC(=O)O [TSU-68, (Z)-5-[(1,2-dihydro-2-oxo-3H-indol-3-ylidene)methyl]2,4-dimethyl-1H-pyrro 1-3-propanoic acid]
6-month-progression-free survival rates ([1]; IL-8 hyperexpression group, cut-off 2.1 pg/ml): 48% | Difference between 6-month-progression-free survival rate [1, 3]: 23% | Hazard ratio [1, 3]: 0.51 | 6-month-progression-free survival rate ([1]; IL-8 hyperexpression group, cut-off 6.6 pg/ml): 50% | Difference between 6-month-progression-free survival rates [1, 4]: 20% | Hazard ratio [1, 4]: 0.51 | 6-month-progression-free survival rate ([1]; IL-8 hyperexpression group, cut-off 10.5 pg/ml): 56% | Difference between 6-month-progression-free survival rates [1, 5]: 27% | Hazard ratio [1, 5]: 0.51 | 6-month-progression-free survival rates ([1]; IL-8 underexpression group, cut-off 2.1 pg/ml): 0% | Difference between 6-month-progression-free survival rate ([1]; IL-8 underexpression group, cut-off 2.1 pg/ml, vs non-administration): −57% | 6-month-progression-free survival rate ([1]; IL-8 underexpression group, cut-off 6.6 pg/ml): 39% | Difference between 6-month-progression-free survival rates [1, 6]: 9% | Hazard ratio [1, 6]: 0.92 | 6-month-progression-free survival rate ([1]; IL-8 underexpression group, cut-off 10.5 pg/ml): 41% | Difference between 6-month-progression-free survival rates [1, 7]: 11% | Hazard ratio [1, 7]: 0.79 | 6-month-progression-free survival rate ([1]; PDGF-BB hyperexpression group, cut-off 1480 pg/ml): 52% | Difference between 6-month-progression-free survival rates [1, 8]: 21% | Hazard ratio [1, 8]: 0.64 | 6-month-progression-free survival rate ([1]; PDGF-BB hyperexpression group, cut-off 1740 pg/ml): 52% | Difference between 6-month-progression-free survival rates [1, 9]: 25% | Hazard ratio [1, 9]: 0.59 | 6-month-progression-free survival rate ([1]; PDGF-BB hyperexpression group, cut-off 1960 pg/ml): 52% | Difference between 6-month-progression-free survival rates [1, 10]: 25% | Hazard ratio [1, 10]: 0.55 | 6-month-progression-free survival rate ([1]; PDGF-BB hyperexpression group, cut-off 2030 pg/ml): 52% | Difference between 6-month-progression-free survival rates [1, 11]: 24% | Hazard ratio [1, 11]: 0.62 | 6-month-progression-free survival rate ([1]; PDGF-BB underexpression group, cut-off 1480 pg/ml): 25% | Difference between 6-month-progression-free survival rates [1, 12]: 2% | Hazard ratio [1, 12]: 0.73 | 6-month-progression-free survival rate ([1]; PDGF-BB underexpression group, cut-off 1740 pg/ml): 40% | Difference between 6-month-progression-free survival rates [1, 13]: 2% | Hazard ratio [1, 13]: 0.85 | 6-month-progression-free survival rate ([1]; PDGF-BB underexpression group, cut-off 1960 pg/ml): 40% | Difference between 6-month-progression-free survival rates [1, 14]: 7% | Hazard ratio [1, 14]: 0.84 | 6-month-progression-free survival rate ([1]; PDGF-BB underexpression group, cut-off 2030 pg/ml): 42% | Difference between 6-month-progression-free survival rates [1, 15]: 10% | Hazard ratio [1, 15]: 0.75 | 6-month-progression-free survival rate ([1]; all cases, TSU-68 200 mg orally twice daily after TACE): 47% | Hazard ratio ([1]; all cases, TSU-68 administration to non-administration group): 0.69 | Difference between 6-month-progression-free survival rates ([1]; all cases, TSU-68 administration vs non-administration group): 18% | Difference between 6-month-progression-free survival rates [1, 16]: 22% to 27 | Hazard ratio [1, 16]: 0.51 to 0.68 | Difference between 6-month-progression-free survival rates [1, 17]: < 20% | Hazard ratio [1, 17]: > 0.6 | antitumor effects (tumor growth inhibition) [2]: effective for inhibiting tumor growth
